According to patent US20050214738A1, “Conditional allele system” (priority 2003, published 2005):
Where a SMILES comes first, the peptide text is derived from it. The star is where a group is joined. Cbz = O=C(OCc1ccccc1)*

Legend:
mutant FRBs = assay: SeAP transcriptional switch assay, panel of FRB mutants at 2095, 2098, 2101; format: cell-based, human
Method: All FRB mutants were prepared by the Quikchange mutagenesis method (Stratagene) using protocols provided by the manufacturer. Briefly, PCR reactions containing the parent plasmid pBJ5-FRB-VP16-HA or pBJ5-FRB*-VP16-HA and overlapping oligonucleotides containing the relevant base changes were performed with Pfu polymerase (Stratagene, San Diego, Calif.). PCR reactions were digested with the methylation sensitive restriction endonuclease Dpn1 to eliminate the parent plasmid and the reaction was transformed in XL10-Gold Ultracompetent E. coli (Stratagene).
Electroporation details are available upon request. Cells were immediately aliquoted to 2 or 3×96 well plates with flat bottoms. […] Data was analysed with Softmax Pro (Molecular Devices), Microsoft Excel and Prism 3 (GraphPad Software).

GSK-3βFRB* = GSK-3βFRB* (UniProt P26883+P42345, K2095P/T2098L/W2101F); assay: Inducible stabilization of GSK-3βFRB* in knock-in MEFs (Western blot); format: cell-based, mouse; parameters: The minimal FRB domain comprises amino acids 2025-2114 of human mTor; endogenous in cells; host or cells: MEFs from GSK-3β^FRB* knock-in mice (fusion expressed from the targeted endogenous locus); settings: heterozygous MEFs; for GSK-3βFRB* stability when stabilization is reversed with FK506 in presence of protease inhibitor: inhibitor added 30 minutes before FK506, 9 h
Method: MEFs cell lines were prepared from E14.5-E16.5 embryos of indicated genotypes by eviscerating the embryos in HBSS, treating the remaining tissue with 0.2% collagenase and trypsin, and plating the cells in DMEM containing 10% FCS, antibiotics, and 0.1 mM β-mercaptoethanol. Once established, the MEFs were cultured using standard techniques and treated with various small molecules as indicated.
Western Blot analysis was carried out using cell lysates prepared in RIPA buffer (10 mM Tris pH 7.2, 150 mM NaCl, 0.1% SDS, 1% Triton X-100, 1% deoxycholate, 5 mM EDTA, protease inhibitor cocktail (Invitrogen Life Technologies)) and then separated using standard SDS/PAGE before being transferred to PVDF (Millipore) using standard Western blotting procedures. The anti-GSK-3β antibody, used at 1:2500, the anti-HSP-90 antibody, 1:2500, and the anti-FKBP12 antibody, 1:2500, were purchased from BD Transduction Labs. The anti-β-catenin antibody, 1:2000, and anti-HSP-70 antibody, 1:1000 were purchased from Santa Cruz Biotechnology. […] In all cases, Western blots were incubated overnight with the appropriate primary antibodies in TBST (10 mM Tris 8.0, 150 mM NaCl, 0.1% Tween-20) containing 10% dry milk, and then washed 3 times with TBST. The blots were subsequently incubated for 30 minutes with HRP-conjugated secondary antibodies from Jackson Immunoresearch, washed 3 more times with TBST, and then developed using standard ECL reagents (Amersham Biosciences) and Kodak XAR film.

FRB*Pax6 [1] = biological target: T1, FRB*Pax6 (UniProt P26883+P42345, K2095P/T2098L/W2101F); assay: Stabilization of FRB*Pax6 in cortical neural cultures (Western blot); format: cell-based, mouse; settings: replacement of MaRap after 36 hours; 500 nM after 200 nM MaRap
T1 construct: The minimal FRB domain comprises amino acids 2025-2114 of human mTor; from tissue; host or cells: e13.5 cortical neural cultures (A14) and cultured whole embryos (A15) from Pax6^FRB* knock-in mice; fusion expressed from the targeted endogenous locus
Excerpt: e13.5 embryos were harvested from a Pax6^FRB*/+ intercross and cortical hemispheres isolated from individuals identified by eye and craniofacial morphology and later confirmed by genotype specific PCR. Pia were removed and neocortex dissected from […] in Hank's balanced salt solution (HBSS). Tissue was minced roughly and placed in centrifuge tubes containing HBSS+20% foetal calf serum. Tissue pieces were allowed to settle and the media was replaced first with HBSS+serum then HBSS alone. The tissue was incubated with 0.1% trypsin+2 mM EDTA 10 minutes at 37° C. then the reaction stopped with HBSS+serum. Cells were triturated to a suspension and plated on 24 well plates coated with matrigel in DMEM (high glucose) supplemented with FCS (5%), N2 (GIBCO) and antibiotics.
Extracts were prepared in RIPA buffer, protein quantified by Bradford Assay (Biorad) and 10 μg of total protein resolved by SDS-PAGE, transferred to PVDF (Millipore) filters and Pax6 or HSP90 identified with specific antibodies (1:1000, Covance and 1:2500 Transduction Laboratories, respectively) incubated 1 hour in TBS+10% nonfat milk. Secondary conjugated to horse radish peroxidase were purchased from Jackson immunochemicals and blots were developed by chemiluminescence (Amersham).

FRB*Pax6 [2] = biological target: T1, FRB*Pax6; assay: Whole embryo culture, inducible stabilization of FRB*Pax6; parameters: species or system mouse
Method: Uterine horns were removed from sacrificed mothers to a petri dish containing Hank's Balanced Salt Solution (HBSS), fat was removed and the uterus cut up to isolate embryos. Individual deciduum were carefully removed from the uterus by carefully pulling apart the muscular layers in a fresh petri dish containing HBSS (sometimes supplemented with 2 mg/mL glucose) under a dissecting microscope. Embryos were removed by cutting along the lateral axis of the deciduum with fine forceps taking care not to puncture the embryonic membranes and teasing off the decidual layers overlying the embryo. Embryos were then separated from the remaining decidua at the ectoplacental cone or primitive placenta (depending on the age of the embryo).
Reichert's membrane was grasped without the underlying visceral yolk sac, carefully torn away from the embryo and trimmed back to the placenta without ripping the yolk sac. […] The bottle rotated slowly in a roller bottle chamber at 37° C. Drugs were added directly to the culture media at the commencement of the culture.
Embryos were fixed overnight in 4% paraformaldehyde/PBS then dehydrated through a staged ethanol series. Endogenous peroxidases were inactivated with 5% H2O2 for 4 hours in ethanol and the embryos were rehydrated. […] Embryos were washed in block 6 hours with 1 hour changes and incubated overnight at 4° C. with […] anti-mouse secondary. Embryos were washed with PBS+0.1% Triton X-100 4 times for 1 hour and developed with the DAB peroxidase kit from Vector laboratories.
Embryos were protected with a staged series to 30% sucrose in PBS after fixation in 4% PFA (60 minutes to overnight at 4° C.). Protected embryos were embedded in OCT (VWR) frozen and sectioned on a Leica cryostat to 10 μm. Thin sections were stained according to standard protocols (obtained upon request). Secondary antibodies were purchased from Molecular Probes (Eugene, Oreg.) and primary antibodies to neurofilament, Lim3, Nkx2.2, Pax6, En1, Isl1 were obtained from Dev. Studies. Additional antibodies were from Covance, Zymed or a generous gift of Tadashi Nomura and Noriko Osumi (Sendai, Japan). Immunofluorescence was visualized by confocal microscopy.

embryos = assay: Overt effects on mother and embryos after IP injection of pregnant mice; format: in vivo, mouse; settings: 10 mg/kg/day, similarly injected
Method: GSK-3β^+/FRB* mice were intercrossed and the date of vaginal plug observation was set as E0.5. At E9.5, the stage of embryonic development was confirmed by ultrasonography (Chang, C. P. et al. “Sonographic Staging of the Developmental Status of Mouse Embryos in Utero.” (2003) Published in Genesis 36, 7-11) and mice were weighed. Drug administration commenced at E10.0. […] 100 μL was immediately injected intraperitoneally (IP) to pregnant females with injections repeated twice more at 12 hour intervals to E11.5 when mice were sacrificed, and embryos and organs were dissected and frozen in […]. Tissues anterior to the embryonic forelimbs of individual embryos were used for preparation of protein extracts with the remainder used to determine the concentration of drug and for genotyping.

FRB = biological target: T2, FRB (Homo sapiens, UniProt P42345+P62942); assay: SeAP reporter assay, dimerization of FRB-VP16 to FKBP3-GAL4DBD in COS-1 cells; format: cell-based; settings: wild-type FRB(KTW)-VP16; ±95% confidence intervals
T2 construct: The minimal FRB domain comprises amino acids 2025-2114 of human mTor; expressed in transfected cells; host or cells: COS-1 cells, electroporated with pBJ5-FRBVP, pBJ5-GF3E and pG5IL2SX
Excerpt: (§1) Transcription activation by recruitment of chimeric transcriptional activation and DNA binding domains is described. COS-1 cells were electroporated with […] each of the following expression plasmids (Ho, S. N., Biggar, S. R., Spencer, D. M., Schreiber, S. L., and Crabtree, G. R. “Dimeric ligands define a role for transcriptional activation domains in reinitiation.” (1996) Nature 382, 822-826): pG5IL2SX (drives transcription of bacterial secreted alkaline phosphatase (SeAP) through GAL4 DNA binding […] elements), pBJ5-GF3E (which expresses the GAL4 DNA binding domain fused to three copies of human FKBP12), and pBJ5-FRBVP. (which expresses a FRB fusion with the Herpes Simplex Virus VP16 Activation domain) A FRB*-VP16 fusion protein which consists of modified FRB protein fused to the VP16 activation domain was also used selectively. Transfected cells were distributed equally to 96 well plates and were incubated at 37° C. for 24 to 36 hours before media was supplemented with drug in a dilution curve in which each point is represented in quadruplicate. Cells were incubated at 37° C. for an additional 24 hours followed by a 2-hour treatment at 65° C. to inactivate endogenous phosphatases. Each well was supplemented with 100μL of 1 mM methylumbelliferylphosphate dissolved in 2 M diethanolamine buffered to pH 10.0 with carbonate and incubated at 37° C. for 16 hours. Fluorescence was measured with a Fluoroscan (ICN) plate reader at 355 nm transmission and 455 nm emission using Deltasoft software.
(§2) Drug efficacy was determined in a three-plasmid transcriptional switch reporter assay. ˜106 COS1 cells were coelectroporated with 2 μg of the DNA binding construct pBJ5-Gal4-FKBP(3), 2 μg pBJ5-VP16 (or the relevant mutant FRB) and 2 μg of the Gal4-SeAP reporter. Electroporation details are available upon request. […] SeAP activity was measured by fluorescence with a Spectamax M2 fluorometer (Molecular Devices, Sunnyvale, Calif.) with transmission set at 355 nm and emmission set at 460 nm. Data was analysed with Softmax Pro (Molecular Devices), Microsoft Excel and Prism 3 (GraphPad Software).

FRB* = biological target: T3, FRB* (Homo sapiens, UniProt P42345+P62942, K2095P/T2098L/W2101F); assay: SeAP reporter assay, dimerization of FRB*-VP16 to FKBP3-GAL4DBD in COS-1 cells; format: cell-based; settings: FRB*(PLF)-VP16; ±95% confidence intervals
T3 construct: The minimal FRB domain comprises amino acids 2025-2114 of human mTor; expressed in transfected cells; host or cells: COS-1 cells
Excerpt: as §1, §2

T1 sequence (P42345 2025-2114 K2095P/T2098L/W2101F): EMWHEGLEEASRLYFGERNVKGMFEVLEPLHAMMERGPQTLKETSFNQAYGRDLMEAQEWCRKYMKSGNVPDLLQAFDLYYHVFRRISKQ
T1 sequence (P26883 2-108): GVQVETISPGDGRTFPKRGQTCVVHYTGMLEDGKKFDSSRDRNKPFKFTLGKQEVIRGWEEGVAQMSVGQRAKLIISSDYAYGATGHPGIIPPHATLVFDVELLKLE
GSK-3βFRB*, sequence (P42345 2025-2114 K2095P/T2098L/W2101F): as the sequence (P42345 2025-2114 K2095P/T2098L/W2101F) above
GSK-3βFRB*, sequence (P26883 2-108): as the sequence (P26883 2-108) above
T3 sequence (P42345 2025-2114 K2095P/T2098L/W2101F): as the sequence (P42345 2025-2114 K2095P/T2098L/W2101F) above
T3 sequence (P62942 whole entry, the tested form may be a part): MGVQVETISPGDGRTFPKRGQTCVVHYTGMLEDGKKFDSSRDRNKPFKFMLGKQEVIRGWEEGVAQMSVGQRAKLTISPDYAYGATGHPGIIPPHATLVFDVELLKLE
T2 sequence (P42345 2025-2114): as the sequence (P42345 2025-2114 K2095P/T2098L/W2101F) above, with P71K, L74T, F77W counted along it
T2 sequence (P62942 whole entry, the tested form may be a part): as the sequence (P62942 whole entry, the tested form may be a part) above

## CO[C@H]1[C@@H](O)[C@H](C)C[C@H](C)/C=C/C=C/C=C(\C)[C@@H](c2c[nH]c3c(C)cccc23)C[C@@H]2CC[C@@H](C)[C@@](O)(O2)C(=O)C(=O)N2CCCC[C@H]2C(=O)O[C@H]([C@H](C)C[C@@H]2CC[C@@H](O)[C@H](OC)C2)C[C@H](O)[C@H](C)/C=C(\C)[C@H]1O [C16-(S)iRap, C16-(S)7-methylindolerapamycin, reference compound]
Mutant FRBs; all mutants
  effectiveness against all mutants relative to C16-BSrap: significantly less effective than C16-BSrap

## CCOC(=O)[C@H]1O[C@@H]1C(=O)N[C@@H](CC(C)C)C(=O)NCCC(C)C [E-64D, reference compound]
GSK-3βFRB*
  GSK-3βFRB* stability when stabilization is reversed with FK506 in presence of protease inhibitor: did not protect

## CO[C@H]1C[C@@H](C)C/C(C)=C/[C@@H](CCOC(=O)NCc2ccccc2)C(=O)C[C@H](O)[C@@H](C)[C@@H](/C(C)=C/[C@@H]2CC[C@@H](O)[C@H](OC)C2)OC(=O)[C@@H]2CCCCN2C(=O)C(=O)[C@]2(O)O[C@H]1[C@@H](OC)C[C@H]2C [FK506M, reference compound]
FRB*Pax6 [1]
  time for stabilized FRB*Pax6 levels to drop to the basal level: ≤ 6 h
FRB*Pax6 [2]; 24 hours MaRap then replacement with FK506M
  differentiation of Lim3-positive somatic motor neurons after transient stabilization: fail to differentiate
FRB*Pax6 [2]; 24 hours MaRap then replacement with FK506M (5 μM) 24 hours, e9.5 embryos
  FRB*Pax6 immunoreactivity after transient stabilization: loss of most of the FRB*Pax6 immunoreactivity
GSK-3βFRB*; 300 nM after 100 nM C20-MaRap 36 h
  time for GSK-3βFRB* to return to steady state low levels: less than 9 hours

## CC(C)C[C@@H](C=O)NC(=O)[C@H](CC(C)C)NC(=O)[C@H](CC(C)C)NC(=O)OCc1ccccc1 [MG132, reference compound] (Cbz-Leu-Leu-Leu-aldehyde)
GSK-3βFRB*
  GSK-3βFRB* stability when stabilization is reversed with FK506 in presence of protease inhibitor: remained stable

## CC(=O)N[C@@H](CSC(=O)[C@]1([C@@H](O)C(C)C)NC(=O)[C@H](C)[C@@H]1O)C(=O)O [lactacystin, reference compound]
GSK-3βFRB*
  GSK-3βFRB* stability when stabilization is reversed with FK506 in presence of protease inhibitor: remained stable

## CO[C@H]1C[C@@H]2CC[C@@H](C)[C@@](O)(O2)C(=O)C(=O)N2CCCC[C@H]2C(=O)O[C@H]([C@H](C)C[C@@H]2CC[C@@H](O)[C@H](OC)C2)CC(=O)[C@H](C)/C=C(\C)[C@@H](O)[C@@H](OC)C(=O)[C@H](C)C[C@H](C)/C=C/C=C/C=C/1C [rapamycin, reference compound]
embryos
  effect on embryos: produced “flat-top” embryos

## C16-(R)-methallylrapamycin [C16-MaRap]
FRB
  EC50: 273 ± 13.5 nM
FRB*
  EC50: 15.9 ± 1.5 nM

## C16-(S)-3-Methylindole rapamycin [C16-iRap]
Mutant FRBs; Phe at 2101, Leu at 2098
  binding to FRB mutants with Trp 2101 Phe substitution, Leu at 2098: fully rescues drug binding
Mutant FRBs; Phe at 2101, Thr at 2098
  binding to FRB mutants with Trp 2101 Phe substitution, Thr at 2098: does not bind
